The conditions of assay [1]: over one year; cited from earlier work.
The next assay has as its system gut microbiota. Kind of assay: Oral gavage of non-formulated peroxide, 16S rRNA sequencing of fecal samples (Example 7). Conditions: rats, oral gavage three times daily in acidified water, total dose 600 mg/kg body weight, 3 days. The assay is classed as in vivo, Sprague Dawley lean rats. How it is done: (§1) 6-7 week old Sprague Dawley lean rats were orally gavaged three times daily either with carbamide peroxide dissolved in acidified water as the treatment arm (total dose=600 mg/kg body weight) or with acidified water alone as the control arm (12 […] per arm) for 3 days. Gavage solution was prepared immediately before oral gavaging was performed. Each rat was fed a normal chow diet throughout (Research Diets) and kept under 12 hr-12 hr light-dark cycle in its own metabolic cage. Fresh fecal samples were collected at day 0 (basal measurement, before dosing start) and at the end of day 3 (after the final dose) and immediately stored at −80 C. Later, 16S rRNA sequencing was performed to measure relative abundance of different taxa in the stool samples. Body weight and food intake were measured daily.

Assay [2] can be described thus: Oral gavage of non-formulated peroxide, body weight and food intake (Example 7). The assay is classed as in vivo, Sprague Dawley lean rats. Conditions: rats, oral gavage three times daily in acidified water, total dose 600 mg/kg body weight, 3 days. How it is done: as §1

Take `CC(C)(N)Cc1ccccc1` [Phentermine]: the weight loss in assay [1] was 4-5%.

As to `CCCCCCCCCCC[C@@H](C[C@@H]1OC(=O)[C@H]1CCCCCC)OC(=O)[C@H](CC(C)C)NC=O` [Xenical], the weight loss in assay [1] was 3-4%.

Consider `NC(N)=O.OO` [carbamide peroxide], for which the “change in gut microbiota composition between Day 0 and Day 3, treatment arm and control arm” value with gut microbiota is on record as “No significant change”. In addition, in assay [2], the “body weight, treatment versus control arm” value is on record as “no significant differences” and the “food intake, treatment versus control arm” value is “no significant differences”.

Values taken from patent US11179356B2, “Methods and compositions to modulate the gut microbiota and to manage weight” (Xeno Biosciences Inc., priority 2015, dated 2021).
